The conditions of data set [1]: 101.3 kPa, Liquid; for viscosity: Capillary tube (Ostwald / Ubbelohde) method.
Data set [2] can be described thus: xn = mol fraction of the nth substance listed. To be noted: 101.3 kPa, Liquid, x1 = 1; for viscosity: Capillary tube (Ostwald / Ubbelohde) method.

± gives the expanded uncertainty stated by the source.

`CCCCN` [1-butanamine]: the viscosity in data set [1] (293.15 K) is given as 0.525 ± 0.005 mPa·s; in data set [1] (298.15 K) it was 0.496 ± 0.005 mPa·s; in data set [1] (303.15 K) it was 0.467 ± 0.005 mPa·s. Moreover, in data set [1] (298.15 K), the speed of sound is on record as 1251.6 ± 1.1 m/s.
As to `COCCO` [2-methoxyethan-1-ol] + CCCCN, the viscosity is reported as 1.708 ± 0.013 mPa·s in data set [2] (293.15 K), 1.544 ± 0.012 mPa·s in data set [2] (298.15 K) and 1.404 ± 0.011 mPa·s in data set [2] (303.15 K). Moreover, in data set [2] (298.15 K), the speed of sound amounted to 1344.5 ± 1.1 m/s.
`COCCO` [2-methoxyethan-1-ol]: the viscosity in data set [1] (293.15 K) is 1.708 ± 0.013 mPa·s; in data set [1] (298.15 K), 1.544 ± 0.012 mPa·s; in data set [1] (303.15 K) it was 1.404 ± 0.011 mPa·s. For the same molecule, the speed of sound in data set [1] (298.15 K) came out at 1344.5 ± 1.1 m/s.
